Consider five molecules from patent publication US20240109917A1 (ACTELION PHARMACEUTICALS LTD, priority 2020, published 2024).

Assay [1] addresses Tb-labeled inactive PDGFRβ (Homo sapiens (Human), UniProt P09619). The assay can be described thus: PDGFRβ LanthaScreen Assay. Particulars: read-out: PDGFR Lantha IC50. The class given is binding. (In general: In TR-FRET formats the signal depends on donor and acceptor labels being close together.)
In assay [2] the target is His6-TEV-PDGFRβ (557-1016) (Homo sapiens (Human), UniProt P09619). The assay can be described thus: PDGFRβ HTRF Assay. The class given is biochemical. Particulars: read-out: PDGFR HTRF IC50. Summed up:
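Human PDGFRβ (557-1016) pre-incubated with compound for 30 min at RT in pH 7.5 HEPES/MgCl2/EGTA/Brij-35/DTT buffer. Reaction started with ATP and TK-biotin peptide, run 3 h at RT, then quenched with EDTA-containing Eu-cryptate antibody/streptavidin-XL665. HTRF 665/620 nm ratio read after 60 min; percent inhibition relative to DMSO and 10 μM imatinib controls.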

The target in a further assay is PDGFRβ (Rattus norvegicus (Rat), UniProt Q05030). The assay can be described thus: PDGFRβ Cellular Assay (PDGFRb P-Y751 HTRF in A10 cells stimulated with PDGF-BB). It counts as cell-based. Particulars: read-out: PDGFR Cellular IC50. Summed up:
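Rat A10 cells, plated overnight, were treated with compound for 3 hours, then stimulated with PDGF-BB (working stock 100 ng/mL in 10% FBS medium). After lysis, PDGFRβ P-Y751 was detected by HTRF.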

Tb-labeled inactive PDGFRβ, sequence (P09619 33-1106): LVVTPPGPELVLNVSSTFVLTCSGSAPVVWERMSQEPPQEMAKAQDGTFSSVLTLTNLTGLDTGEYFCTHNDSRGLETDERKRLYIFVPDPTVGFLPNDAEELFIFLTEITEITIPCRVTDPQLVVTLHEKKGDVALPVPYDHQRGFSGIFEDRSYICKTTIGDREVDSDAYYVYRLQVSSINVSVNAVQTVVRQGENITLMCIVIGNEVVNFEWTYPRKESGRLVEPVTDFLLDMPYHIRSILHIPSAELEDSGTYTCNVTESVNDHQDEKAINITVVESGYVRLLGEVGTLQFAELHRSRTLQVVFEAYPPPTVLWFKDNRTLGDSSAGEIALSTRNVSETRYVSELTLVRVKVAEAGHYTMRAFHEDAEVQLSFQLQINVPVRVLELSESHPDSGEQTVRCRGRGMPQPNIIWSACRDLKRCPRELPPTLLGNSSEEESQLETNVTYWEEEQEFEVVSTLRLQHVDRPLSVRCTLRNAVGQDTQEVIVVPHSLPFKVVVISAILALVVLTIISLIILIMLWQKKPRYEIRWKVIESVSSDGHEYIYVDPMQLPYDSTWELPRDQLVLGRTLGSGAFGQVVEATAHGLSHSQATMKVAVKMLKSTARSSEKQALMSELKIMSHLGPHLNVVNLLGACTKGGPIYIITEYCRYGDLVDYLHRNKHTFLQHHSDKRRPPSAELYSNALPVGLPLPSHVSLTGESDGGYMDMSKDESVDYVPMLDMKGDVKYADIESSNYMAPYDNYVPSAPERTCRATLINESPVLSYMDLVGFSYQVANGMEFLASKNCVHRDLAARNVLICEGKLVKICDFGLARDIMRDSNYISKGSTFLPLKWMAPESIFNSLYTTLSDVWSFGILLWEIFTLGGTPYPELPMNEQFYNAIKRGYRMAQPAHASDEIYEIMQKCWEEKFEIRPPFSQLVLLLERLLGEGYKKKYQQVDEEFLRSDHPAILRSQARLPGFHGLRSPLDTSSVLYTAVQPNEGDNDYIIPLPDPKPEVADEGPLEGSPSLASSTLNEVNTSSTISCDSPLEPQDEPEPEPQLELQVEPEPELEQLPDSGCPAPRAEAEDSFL
His6-TEV-PDGFRβ (557-1016), sequence (P09619 557-1016): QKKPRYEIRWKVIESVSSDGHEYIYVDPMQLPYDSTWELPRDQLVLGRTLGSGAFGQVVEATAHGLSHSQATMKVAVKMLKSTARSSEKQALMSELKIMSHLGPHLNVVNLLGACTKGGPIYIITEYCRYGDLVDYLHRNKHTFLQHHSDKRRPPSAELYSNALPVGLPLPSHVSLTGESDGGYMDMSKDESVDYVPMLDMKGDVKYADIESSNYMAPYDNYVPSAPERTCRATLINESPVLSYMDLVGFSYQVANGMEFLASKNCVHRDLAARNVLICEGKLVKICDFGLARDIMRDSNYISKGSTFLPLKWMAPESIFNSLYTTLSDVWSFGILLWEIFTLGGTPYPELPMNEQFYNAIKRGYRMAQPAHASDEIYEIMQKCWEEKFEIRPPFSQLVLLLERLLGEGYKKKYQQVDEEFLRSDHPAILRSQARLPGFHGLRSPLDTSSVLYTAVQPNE
PDGFRβ, sequence (Q05030 32-1097): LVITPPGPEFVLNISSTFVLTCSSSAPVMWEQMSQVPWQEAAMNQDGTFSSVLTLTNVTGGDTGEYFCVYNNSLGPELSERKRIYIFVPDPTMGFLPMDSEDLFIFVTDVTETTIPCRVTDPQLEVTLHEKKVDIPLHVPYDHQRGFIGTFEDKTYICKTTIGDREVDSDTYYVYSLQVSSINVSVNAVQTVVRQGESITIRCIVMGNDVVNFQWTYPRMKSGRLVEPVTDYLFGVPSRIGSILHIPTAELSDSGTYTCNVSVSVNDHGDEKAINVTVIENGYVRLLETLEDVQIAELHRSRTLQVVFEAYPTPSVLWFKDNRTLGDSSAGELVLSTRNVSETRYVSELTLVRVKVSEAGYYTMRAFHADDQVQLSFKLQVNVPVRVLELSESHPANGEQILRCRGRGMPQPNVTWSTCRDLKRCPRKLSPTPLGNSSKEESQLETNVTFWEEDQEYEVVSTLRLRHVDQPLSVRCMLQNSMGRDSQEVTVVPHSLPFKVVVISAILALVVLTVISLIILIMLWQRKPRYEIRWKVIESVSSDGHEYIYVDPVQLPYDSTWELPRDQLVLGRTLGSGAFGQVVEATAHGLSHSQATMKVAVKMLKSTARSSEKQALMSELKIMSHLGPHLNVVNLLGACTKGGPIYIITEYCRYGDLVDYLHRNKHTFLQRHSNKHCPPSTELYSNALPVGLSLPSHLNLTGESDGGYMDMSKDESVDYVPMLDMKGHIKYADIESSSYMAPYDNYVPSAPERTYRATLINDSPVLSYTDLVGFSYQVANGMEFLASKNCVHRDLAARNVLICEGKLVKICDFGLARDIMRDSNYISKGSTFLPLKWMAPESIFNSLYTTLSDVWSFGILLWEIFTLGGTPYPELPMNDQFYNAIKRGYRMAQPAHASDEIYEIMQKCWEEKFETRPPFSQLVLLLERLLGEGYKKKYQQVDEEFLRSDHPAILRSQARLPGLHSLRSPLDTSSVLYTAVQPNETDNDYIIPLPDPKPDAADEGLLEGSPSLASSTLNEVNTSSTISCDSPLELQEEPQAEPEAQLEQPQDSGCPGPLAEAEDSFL

By IC50 is commonly meant the point on the concentration scale where inhibition reaches its midpoint. Consider `COCCn1cc(-c2cn3ncc(C(=O)Nc4cc(NC(=O)C(C)(C)CN5CCCC5(C)C)cnc4C)c3s2)cn1` [Example 488, N-(5-(3-(2,2-dimethylpyrrolidin-1-yl)-2,2-dimethyl-propanamido)-2-methylpyridin-3-yl)-2-(1-(2-methoxyethyl)-1H-pyrazol-4-yl)pyrazolo[5,1-b]thiazole-7-carboxamide], for which the IC50 in assay [1] stood at 1280 nM; in assay [2] it was 92.3 nM; on PDGFRβ it was 375 nM.
As for `Cc1ncc(NC(=O)CNCC(C)C)cc1NC(=O)c1cnn2cc(-c3cnn4c3CCC4)sc12` [Example 493, 2-(5,6-dihydro-4H-pyrrolo[1,2-b]pyrazol-3-yl)-N-(5-(2-(isobutylamino)acetamido)-2-methylpyridin-3-yl)pyrazolo[5,1-b]thiazole-7-carboxamide], the IC50 in assay [1] is 1.9 nM; in assay [2], 0.2 nM; on PDGFRβ, 7 nM.
In the same order, the values of `Cc1ncc(NC(=O)CNC2CCC2)cc1NC(=O)c1cnn2cc(-c3cnn4c3OCCC4)sc12` [Example 494, N-(5-(2-(cyclobutylamino)acetamido)-2-methylpyridin-3-yl)-2-(6,7-dihydro-5H-pyrazolo[5,1-b][1,3]oxazin-3-yl)pyrazolo[5,1-b]thiazole-7-carboxamide] are 3.9 nM, 0.4 nM and 9.6 nM.
Turning to `Cc1ncc(NC(=O)CNC2(C)CCC2)cc1NC(=O)c1cnn2cc(-c3cnn4c3OCCC4)sc12` [Example 495, 2-(6,7-dihydro-5H-pyrazolo[5,1-b][1,3]oxazin-3-yl)-N-(2-methyl-5-(2-((1-methylcyclobutyl)amino)acetamido)pyridin-3-yl)pyrazolo[5,1-b]thiazole-7-carboxamide], the IC50 was 2.5 nM in assay [1], 0.3 nM in assay [2] and 3.8 nM at PDGFRβ.
Take `Cc1ncc(NC(=O)OC[C@@H]2CCCN2C)cc1NC(=O)c1cnn2cc(-c3cn(C)nc3C)sc12` [Example 496, (S)-(1-methylpyrrolidin-2-yl)methyl (5-(2-(1,3-dimethyl-1H-pyrazol-4-yl)pyrazolo[5,1-b]thiazole-7-carboxamido)-6-methylpyridin-3-yl)carbamate]: the IC50 in assay [1] came out at 2.8 nM; in assay [2], 0.3 nM; on PDGFRβ, 5.6 nM.
